Measured values published in the NIST ThermoML archive (doi:10.1021/acs.jced.7b00768).
± gives the expanded uncertainty stated by the source.

How the values were obtained:
[1] = Crystal; DSC
[2] = Molar enthalpy of transition or fusion; conditions: Crystal; DSC

Triple point temperature [1]: 412.2 ± 0.8 K
Molar enthalpy of transition or fusion [2]: 12.2 ± 0.335 kcal/mol
Structure (SMILES): C[N+](C)(C)C[C@H](O)CC(=O)[O-].O=C(O)/C=C/C(=O)O [L-carnitine fumarate]
